Key:
Assay type in all cases: in vivo, human
urotensin II (urine) [1] = experiment: Example 2 study, 20 PCTA subjects, urine urotensin II after contrast medium; conditions: for Urotensin II, median: urine, n = 20, t = 0 h value 1.18
Protocol: (§1) In a different study, the effect of the administration of the contrast medium lobitridol (Xenetix, Xen 350) on the urine level of creatinine, urotensin II, total adiponectin and L-FABP in samples obtained from 20 subjects which underwent percutaneous transluminal coronary angioplasty (PCTA) was analyzed. Samples were obtained prior to the administration of the contrast medium (t=0 h), four hours after administration of the contrast medium (t=4 h), as well as 24 hours after administration of the contrast medium.

HMW adiponectin (urine) = experiment: Example 3 case, coronary angiography, urine HMW adiponectin; conditions: person, 350 ml, 24 hours after administration; before 0.92
Protocol: (§2) In order to examine whether the chest pain is caused by a coronary artery disease, a coronary angiography is initiated. A serum sample is obtained from the patient prior to the angiography and the amount of creatinine is determined in a serum sample (0.9 mg/dl). Moreover, in a urine sample HMW adiponectin, urotensin II and L-FABP are determined (adiponectin 0.92 μg/g Creatinine; L-FABP 7 μg/g Creatinine; Urotensin II: 1.2 μg/g Creatinine).
(§3) For coronary angiography 350 ml Xen350 are administered to the patient as a contrast medium. After successful coronary angiography, the patient is monitored for 24 hours. Moreover, creatinine (serum level: 1 mg/dl), adiponectin, L-FABP and urotensin II are determined again after 24 hours after the administration of the contrast medium (urine level: adiponectin 1.55 μg/g Creatinine; L-FABP 21 μg/g Creatinine; Urotensin II: 6 μg/g Creatinine).

L-FABP (urine) [2] = experiment: Example 3 case, coronary angiography, urine L-FABP; conditions: person, 350 ml, 24 hours after administration; before 7
Protocol: as §2, §3

creatinine (urine) [3] = experiment: Example 2 study, 20 PCTA subjects, urine creatinine after contrast medium; conditions: n = 20, t = 0 h value 0.75
Protocol: as §1

[4] = system: total adiponectin (urine); experiment: Dose response analysis, total adiponectin in urine of PCTA patients after contrast medium; conditions: for Adiponectin Changes: 24 h vs 0 h; for 24 h Adiponectin: urine
Protocol: (§4) The effect of the administration of various amounts of the contrast medium Iobitridol (Xenetix, Xen 350) on the level of creatinine, urotensin II, total adiponectin and L-FABP in urine samples obtained from subjects which underwent percutaneous transluminal coronary angioplasty (PCTA) was analysed. All six patients examined in this study had no apparent renal disorder indicated by a serum creatinine level of less than 1.2 mg/dl (before PCTA). Each patient received a different amount of the contrast medium (50 ml, 80 ml, 100 ml, 150 ml, 220 ml and 350 ml, respectively). The urinary levels of creatinine, urotensin II, total adiponectin and L-FABP were determined in samples that were obtained prior to the administration of different volumes of the contrast medium (time point 0) and 24 h after the administration of the contrast medium. […] The results are normalized to the urinary creatinine concentration. From the data it clearly can be seen that a high dose of an administered contrast medium leads to a significant increase of adiponectin and L-FABP.

L-FABP (urine) [5] = experiment: Example 2 study, 20 PCTA subjects, urine L-FABP after contrast medium; conditions: for L-FABP, median: urine, n = 20, t = 0 h value 13.44
Protocol: as §1

serum creatinine = experiment: Example 3 case, coronary angiography, serum creatinine and renal outcome; conditions: person, 350 ml
Protocol: as §2, §3

[6] = system: total adiponectin (urine); experiment: Example 2 study, 20 PCTA subjects, urine total adiponectin after contrast medium; conditions: n = 20, t = 0 h value 0.66
Protocol: as §1

L-FABP (urine) [7] = experiment: Dose response analysis, L-FABP in urine of PCTA patients after contrast medium; conditions: for L-FABP Changes: 24 h vs 0 h; for 24 h L-FABP: urine
Protocol: as §4

urotensin II (urine) [8] = experiment: Dose response analysis, urotensin II in urine of PCTA patients after contrast medium; conditions: 24 h after vs before administration; six patients, 50-350 ml
Protocol: as §4

urotensin II (urine) [9] = experiment: Example 3 case, coronary angiography, urine urotensin II; conditions: person, 350 ml, 24 hours after administration; before 1.2
Protocol: as §2, §3

creatinine (urine) [10] = experiment: Dose response analysis, creatinine in urine of PCTA patients after contrast medium; conditions: 24 h after vs before administration; six patients, 50-350 ml
Protocol: as §4

[11] = 24 h after vs before administration, six patients, 50-350 ml

## CN(CC(O)CO)C(=O)c1c(I)c(NC(=O)C(CO)CO)c(I)c(C(=O)N(C)CC(O)CO)c1I (centres unmarked) [Xen350, Iobitridol]
Urotensin II (urine) [1]; Table 3 Patient 1, t = 4 h, t = 0 h value 832
  Urotensin II: 999 pg/mL
Urotensin II (urine) [1]; Table 3 Patient 1, t = 24 h, t = 0 h value 832
  Urotensin II: 2591 pg/mL
Urotensin II (urine) [1]; Table 3 Patient 2, t = 4 h, t = 0 h value 1043
  Urotensin II: 1131 pg/mL
Urotensin II (urine) [1]; Table 3 Patient 2, t = 24 h, t = 0 h value 1043
  Urotensin II: 39441 pg/mL
Urotensin II (urine) [1]; t = 4 h
  Urotensin II, median: 1.23 μg/g Creatinine
Urotensin II (urine) [1]; t = 24 h
  Urotensin II, median: 1.77 μg/g Creatinine
HMW adiponectin (urine)
  adiponectin urine level: 1.55 μg/g Creatinine
L-FABP (urine) [2]
  L-FABP urine level: 21 μg/g Creatinine
Creatinine (urine) [3]; t = 4 h
  Creatinine, median: 0.45 g/L
Creatinine (urine) [3]; t = 24 h
  Creatinine, median: 1.05 g/L
[4]; [11]
  increase of median adiponectin in urine: 400%
[4]; Patient 1, 50 ml
  Adiponectin Changes: −88%
[4]; Patient 1, 50 ml, 0 h value 0.92
  24 h Adiponectin: 0.11 ug/g Crea
[4]; Patient 2, 80 ml
  Adiponectin Changes: −22%
[4]; Patient 2, 80 ml, 0 h value 2.99
  24 h Adiponectin: 2.34 ug/g Crea
[4]; Patient 3, 100 ml
  Adiponectin Changes: −44%
[4]; Patient 3, 100 ml, 0 h value 2.68
  24 h Adiponectin: 1.49 ug/g Crea
[4]; Patient 4, 150 ml
  Adiponectin Changes: −91%
[4]; Patient 4, 150 ml, 0 h value 0.32
  24 h Adiponectin: 0.03 ug/g Crea
[4]; Patient 5, 220 ml
  Adiponectin Changes: 897%
[4]; Patient 5, 220 ml, 0 h value 0.41
  24 h Adiponectin: 3.68 ug/g Crea
[4]; Patient 6, 350 ml
  Adiponectin Changes: 690%
[4]; Patient 6, 350 ml, 0 h value 0.1
  24 h Adiponectin: 0.69 ug/g Crea
L-FABP (urine) [5]; Table 3 Patient 1, t = 4 h, t = 0 h value 12
  L-FABP: 6 μg/g Creatinine
L-FABP (urine) [5]; Table 3 Patient 1, t = 24 h, t = 0 h value 12
  L-FABP: 26 μg/g Creatinine
L-FABP (urine) [5]; Table 3 Patient 2, t = 4 h, t = 0 h value 5
  L-FABP: 6 μg/g Creatinine
L-FABP (urine) [5]; Table 3 Patient 2, t = 24 h, t = 0 h value 5
  L-FABP: 33 μg/g Creatinine
L-FABP (urine) [5]; t = 4 h
  L-FABP, median: 12.16 μg/g Creatinine
L-FABP (urine) [5]; t = 24 h
  L-FABP, median: 26.03 μg/g Creatinine
Serum creatinine; 24 hours after administration, before 0.9
  creatinine serum level: 1 mg/dL
Serum creatinine; after two more days (after the 24 h monitoring)
  serum creatinine level: 2.5 mg/dL
Serum creatinine; after two more days, significantly reduced urine excretion
  renal outcome diagnosed: acute renal failure
[6]; t = 4 h
  Adiponectin, median: 0.89 μg/g Creatinine
[6]; t = 24 h
  Adiponectin, median: 1.09 μg/g Creatinine
L-FABP (urine) [7]; [11]
  increase of median L-FABP in urine: 415%
L-FABP (urine) [7]; Patient 1, 50 ml
  L-FABP Changes: −45%
L-FABP (urine) [7]; Patient 1, 50 ml, 0 h value 20.19
  24 h L-FABP: 11.17 ug/g Crea
L-FABP (urine) [7]; Patient 2, 80 ml
  L-FABP Changes: 49%
L-FABP (urine) [7]; Patient 2, 80 ml, 0 h value 42.71
  24 h L-FABP: 63.48 ug/g Crea
L-FABP (urine) [7]; Patient 3, 100 ml
  L-FABP Changes: 40%
L-FABP (urine) [7]; Patient 3, 100 ml, 0 h value 13.77
  24 h L-FABP: 19.33 ug/g Crea
L-FABP (urine) [7]; Patient 4, 150 ml
  L-FABP Changes: 481%
L-FABP (urine) [7]; Patient 4, 150 ml, 0 h value 6.8
  24 h L-FABP: 32.74 ug/g Crea
L-FABP (urine) [7]; Patient 5, 220 ml
  L-FABP Changes: 544%
L-FABP (urine) [7]; Patient 5, 220 ml, 0 h value 13.1
  24 h L-FABP: 71.23 ug/g Crea
L-FABP (urine) [7]; Patient 6, 350 ml
  L-FABP Changes: 406%
L-FABP (urine) [7]; Patient 6, 350 ml, 0 h value 4.36
  24 h L-FABP: 17.71 ug/g Crea
Urotensin II (urine) [8]
  increase of median urotensin II in urine: 350%
Urotensin II (urine) [9]
  Urotensin II urine level: 6 μg/g Creatinine
Creatinine (urine) [10]
  increase of median creatinine in urine: 41%
